In patent US9416127B2, “Triazole carboxamides and uses thereof” (Hoffmann-La Roche Inc., priority 2012, dated 2016):
Counter-ions that a name gives are not always drawn.

Key:
mouse TAAR1 = mouse TAAR1 (Mus musculus (Mouse), UniProt Q923Y8); assay: Radioligand binding assay on mouse TAAR1; details: for Ki: mouse TAAR1, HEK-293 membranes, first value of mouse/rat cell
Method: (§1) Construction of TAAR Expression Plasmids and Stably Transfected Cell Lines
(§2) For the construction of expression plasmids the coding sequences of human, rat and mouse TAAR 1 were amplified from genomic DNA essentially as described by Lindemann et al.. The Expand High Fidelity PCR System (Roche Diagnostics) was used with 1.5 mM Mg^2+ and purified PCR products were cloned into pCR2.1-TOPO cloning vector (Invitrogen) following the instructions of the manufacturer. PCR products were subcloned into the pIRESneo2 vector (BD Clontech, Palo Alto, Calif.), and expression vectors were sequence verified before introduction in cell lines.
(§3) HEK293 cells (ATCC # CRL-1573) were cultured essentially as described by Lindemann et al. (2005). For the generation of stably transfected cell lines HEK293 cells were transfected with the pIRESneo2 expression plasmids containing the TAAR coding sequences (described above) with Lipofectamine 2000 (Invitrogen) according to the instructions of the manufacturer, and 24 hrs post transfection the culture medium was supplemented with 1 mg/ml G418 (Sigma, Buchs, Switzerland). After a culture period of about 10 d clones were isolated, expanded and tested for responsiveness to trace amines (all compounds purchased from Sigma) with the cAMP Biotrak Enzyme immunoassay (EIA) System (Amersham) following the non-acetylation EIA procedure provided by the manufacturer.
Radioligand Binding Assay on Mouse TAAR1
(§4) Membrane Preparation and Radioligand Binding.
(§5) HEK-293 cells stably expressing mouse TAAR1 were maintained at 37° C. and 5% CO2 in DMEM high glucose medium, containing fetal calf serum (10%, heat inactivated for 30 min at 56° C.), penicillin/streptomycin (1%), and 375 μg/ml geneticin (Gibco). Cells were released from culture flasks using trypsin/EDTA, harvested, washed twice with ice-cold PBS (without Ca^2+ and Mg^2+), pelleted at 1'000 rpm for 5 min at 4° C., frozen and stored at −80° C. Frozen pellets were suspended in 20 ml HEPES-NaOH (20 mM, pH 7.4) containing 10 mM EDTA and homogenized with a Polytron (PT 6000, Kinematica) at 14'000 rpm for 20 s. The homogenate was centrifuged at 48'000×g for 30 min at 4° C. Subsequently, the supernatant was removed and discarded, and the pellet resuspended in 20 ml HEPES-NaOH (20 mM, pH 7.4) containing 0.1 mM EDTA using the Polytron (20 s at 14'000 rpm). This procedure was repeated and the final pellet resuspended in HEPES-NaOH containing 0.1 mM EDTA and homogenized using the Polytron. Typically, aliquots of 2 ml membrane portions were stored at −80° C. With each new membrane batch the dissociation constant (Kd) was determined via a saturation curve. […] Nonspecific binding was defined as the amount of ^3[H]—(S)-4-[(ethyl-phenyl-amino)-methyl]-4,5-dihydro-oxazol-2-ylamine bound in the presence of 10 μM unlabeled ligand. All compounds were tested at a broad range of concentrations (10 pM to 10 μM) in duplicates. […] The 96 deep well plates were incubated for 1 hr at 4° C. Incubations were terminated by rapid filtration through Unifilter-96 plates (Packard Instrument Company) and glass filters GF/C (Perkin Elmer) presoaked for 1 hr in polyethylenimine (0.3%) and washed 3 times with 1 ml of cold binding buffer. After addition of 45 μl of Microscint 40 (PerkinElmer) the Unifilter-96 plate was sealed and after 1 hr the ratioactivity counted using a TopCount Microplate Scintillation Counter (Packard Instrument Company).

rat TAAR1 = rat TAAR1 (Rattus norvegicus (Rat), UniProt Q923Y9); assay: Radioligand binding assay on rat TAAR1; details: for Ki: rat TAAR1, HEK-293 membranes, second value of mouse/rat cell
Method: as §1, §2, §3
Radioligand Binding Assay on Rat TAAR1
as §4
as §5, with “rat” for “mouse”, “[…]” for “pM”

mouse TAAR1, sequence (Q923Y8 whole entry): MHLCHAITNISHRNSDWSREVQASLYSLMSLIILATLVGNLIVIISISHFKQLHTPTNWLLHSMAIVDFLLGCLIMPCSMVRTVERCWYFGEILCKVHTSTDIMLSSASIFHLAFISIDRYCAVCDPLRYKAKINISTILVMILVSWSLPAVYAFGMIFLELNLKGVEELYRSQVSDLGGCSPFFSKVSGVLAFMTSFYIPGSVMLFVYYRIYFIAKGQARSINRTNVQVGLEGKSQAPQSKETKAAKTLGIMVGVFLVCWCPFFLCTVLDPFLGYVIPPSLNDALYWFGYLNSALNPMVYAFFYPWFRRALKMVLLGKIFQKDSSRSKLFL
rat TAAR1, sequence (Q923Y9 whole entry): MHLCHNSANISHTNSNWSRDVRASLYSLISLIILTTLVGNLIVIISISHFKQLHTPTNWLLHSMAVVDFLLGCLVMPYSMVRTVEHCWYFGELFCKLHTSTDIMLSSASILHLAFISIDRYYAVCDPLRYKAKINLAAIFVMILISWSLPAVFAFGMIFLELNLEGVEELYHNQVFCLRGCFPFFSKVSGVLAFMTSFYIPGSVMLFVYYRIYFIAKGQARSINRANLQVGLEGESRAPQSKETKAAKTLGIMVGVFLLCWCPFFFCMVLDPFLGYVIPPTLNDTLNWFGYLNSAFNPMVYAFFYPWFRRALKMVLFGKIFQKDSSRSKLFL

| SMILES | Ki (mouse TAAR1) | Ki (rat TAAR1) | Kd (mouse TAAR1; mouse TAAR1 membranes, saturation curve, read-out: dissociation constant (Kd) of radioligand) | Kd (rat TAAR1; rat TAAR1 membranes, saturation curve, read-out: dissociation constant (Kd) of radioligand) |
| --- | --- | --- | --- | --- |
| Cc1cccc(-n2cc(C(=O)Nc3ccc([C@H]4CNCCO4)cc3)nn2)c1 [Example 24, (S)—N-(4-(Morpholin-2-yl)phenyl)-1-m-tolyl-1H-1,2,3-triazole-4-carboxamide hydrochloride] | 0.0013 µM | 0.0069 µM |  |  |
| COc1cccc(-n2cc(C(=O)Nc3ccc([C@H]4CNCCO4)cc3)nn2)c1 [Example 25, (S)-1-(3-Methoxyphenyl)-N-(4-(morpholin-2-yl)phenyl)-1H-1,2,3-triazole-4-carboxamide hydrochloride] | 0.0014 µM | 0.0092 µM |  |  |
| CCOc1cccc(-n2cc(C(=O)Nc3ccc([C@H]4CNCCO4)cc3)nn2)c1 [Example 26, (S)-1-(3-Ethoxyphenyl)-N-(4-(morpholin-2-yl)phenyl)-1H-1,2,3-triazole-4-carboxamide hydrochloride] | 0.0011 µM | 0.0032 µM |  |  |
| O=C(Nc1ccc([C@H]2CNCCO2)cc1)c1cn(-c2cccc(OC(F)(F)F)c2)nn1 [Example 27, (S)—N-(4-(Morpholin-2-yl)phenyl)-1-(3-(trifluoromethoxy)phenyl)-1H-1,2,3-triazole-4-carboxamide hydrochloride] | 0.0068 µM | 0.0154 µM |  |  |
| O=C(Nc1ccc([C@H]2CNCCO2)cc1)c1cnn(-c2cccc(OC(F)(F)F)c2)n1 [Example 28, (S)—N-(4-(Morpholin-2-yl)phenyl)-2-(3-(trifluoromethoxy)phenyl)-2H-1,2,3-triazole-4-carboxamide hydrochloride] | 0.0034 µM | 0.0156 µM |  |  |
| O=C(Nc1ccc([C@H]2CNCCO2)cc1)c1cn(-c2cccc(OC(F)F)c2)nn1 [Example 29, (S)-1-(3-(Difluoromethoxy)phenyl)-N-(4-(morpholin-2-yl)phenyl)-1H-1,2,3-triazole-4-carboxamide hydrochloride] | 0.0009 µM | 0.0006 µM |  |  |
| COc1cccc(-n2ncc(C(=O)Nc3ccc([C@H]4CNCCO4)cc3)n2)c1 [Example 30, (S)-2-(3-Methoxyphenyl)-N-(4-(morpholin-2-yl)phenyl)-2H-1,2,3-triazole-4-carboxamide hydrochloride] | 0.0032 µM | 0.0082 µM |  |  |
| CCOc1cccc(-n2ncc(C(=O)Nc3ccc([C@H]4CNCCO4)cc3)n2)c1 [Example 31, hydrochloride] | 0.013 µM | 0.107 µM |  |  |
| O=C(Nc1ccc([C@H]2CNCCO2)cc1)c1ncn(-c2ccc(OC(F)F)cc2)n1 [Example 32, (S)-1-(4-(Difluoromethoxy)phenyl)-N-(4-(morpholin-2-yl)phenyl)-1H-1,2,4-triazole-3-carboxamide hydrochloride] | 0.0018 µM | 0.045 µM |  |  |
| O=C(Nc1ccc([C@H]2CNCCO2)cc1)c1cn(-c2ccc(Br)cn2)nn1 [Example 36, (S)-1-(5-Bromopyridin-2-yl)-N-(4-(morpholin-2-yl)phenyl)-1H-1,2,3-triazole-4-carboxamide hydrochloride] | 0.0046 µM | 0.03 µM |  |  |
| CCN(C[C@H]1COC(N)=N1)c1ccccc1 [^3[H]—(S)-4-[(ethyl-phenyl-amino)-methyl]-4,5-dihydro-oxazol-2-ylamine, reference compound] |  |  | ~0.7 nM | ~2.3 nM |
